Series [1] has as its system HEK293 cells overexpressing C99-YFP. Kind of series: Western blotting of HEK293 cells overexpressing C99-YFP. The series is classed as cell-based. Particulars: 1 μM, 37° C., 24 h. The procedure:
(A) Adherent CG and NG cells (20,000 cells/well) were treated with 1 μM of the indicated ErbB1/2-selective tyrosine kinase inhibitors in the presence of 1 μg/ml tetracycline at 37° C. for 24 h. The luminescence signals emitted by cells treated with vehicle alone (Ctrl, 0.1% DMSO) were referred to as 100% relative luminescence signals. The luminescence signals generated by γ-secretase-mediated proteolysis of C99 (CG) or NΔE (NG) were determined using the Steady-Glo luciferase assay reagent. (B) HEK293 overexpressing C99-YFP cells were treated with 1 μM of the indicated ErbB1/2 tyrosine kinase inhibitors at 37° C. for 24 h. Clarified lysates were analyzed by Western blotting and quantified by Image J. (C) HEK293 overexpressing ErbB1 ErbB2, CFP-tagged C99, and YFP-tagged NΔE cells were infected with gene-targeting shRNA-encoding lentivirus (shErbB1 or shErbB2) at 37° C. for 48 h. Clarified lysates containing equivalent amounts of proteins were examined by Western blotting and quantified by Image J. (D) CG and NG cells were infected with gene-targeting shRNA-encoding lentivirus at 37° C. for 48 h. Following induction with 1 μg/ml tetracycline for 24 h. Cells infected with empty lentivirus (w/o) or LacZ-targeting shRNA lentivirus (shCtrl_a and shCtrl_b) were included as controls. Data are shown as the mean±SD from three independent experiments, and were analyzed by Student's t-tests. * p<0.05.
Clarified lysates containing equivalent amounts of proteins were analyzed by Western blotting. (B, C) HEK293 overexpressing CFP-LC3 cells were infected with lentivirus encoding shRNA targeting LacZ ErbB2, or ErbB2 plus ATG5 for 48 h. The autophagy induction was analyzed by fluorescence confocal microscopy. The number of CFP-LC3 puncta per cell was quantified. The levels of LC3-I, LC3-II, and GAPDH were analyzed by Western blotting. (D, E) HEK293 cells overexpressing ErbB1, ErbB2, CFP-tagged C99, and YFP-tagged NΔE were infected with lentivirus encoding shRNA targeting LacZ (Ctrl), ErbB1, or ErbB2 for 48 h. Infection mixtures were replaced with 2 ml of fresh culture medium, and infected cells were then incubated at 37° C. for an additional 24 h. The levels of LC3-1, LC3-II, and p62 were analyzed by Western blotting and quantified by NIH Image J. Conditional media were harvested and processed for determination of secreted Aβ40 using a colourimetric Aβ40-specific ELISA kit. (F, G) HEK293 cells overexpressing C99-YFP were treated with vehicle (DMSO) or 1 μM CL-387,785 at 37° C. for 24 h and analyzed by Western blotting. Conditional media were harvested for determination of secreted Aβ40. The quantitative data are shown as mean±SD from three independent experiments, and were analyzed by Student's t-tests. * p<0.05.
Preparation of cell extracts. To prepare total cell-free extracts, we harvested cells in 6-well microplates with ice-cold PBS containing 20 mM EDTA, and then pelleted the cells by centrifugation. PBS-washed cells were resuspended in a lysis buffer containing 1% Triton X-100, 50 mM Tris-HCl pH 7.5, 150 mM NaCl, 25 mM β-glycerophosphate, 1 mM Na3VO4, and protease inhibitor cocktail set V (Merck). Following the removal of cell debris by centrifugation, clarified lysates were processed for immunoprecipitation, Western blotting, or quantification of BCA protein content.
Western blotting analysis. Protein concentration was measured with the BCA Protein Assay Kit (Pierce). […]
A general note: In western blotting, separated proteins are transferred to a membrane and probed.

In series [2] the test system is zebrafish embryos expressing GFP-tagged C99. Briefly: Phenotype of C99-expressing zebrafish embryos (curved trunk, Notch-dependent somite development). Particulars: treated from 48 hpf to 72 hpf, scored at 72 hpf, n=90. The series is classed as in vivo.
Series [3] deals with APPswe/PS1ΔE9 double transgenic mice. Briefly: Morris water maze in APPswe/PS1ΔE9 transgenic mice. To be noted: 5 mg/kg daily oral. The format is in vivo, mouse.
For series [4] the test system is unchanged. Kind of series: Western blotting of brain homogenates of treated APPswe/PS1ΔE9 mice. Particulars: 5 mg/kg daily oral, 20 days. The format is in vivo, mouse.

Results on one compound are retold here after patent US10576082B2, “ErbB2 regulates autophagic flux to modulate the proteostasis of APP-CTFs in alzheimer's disease” (Academia Sinica, priority 2016, dated 2020).

Turning to `CC#CC(=O)Nc1ccc2ncnc(Nc3cccc(Br)c3)c2c1` [CL-387,785, N-[4-[(3-bromophenyl)amino]-6-quinazolinyl]-2-butynamide], in series [1], the LC3-II/LC3-I ratio entry is recorded as “concurrent increase”, the “level of AICD” value was “concomitantly decreased”, the “level of C99” value is “concomitantly decreased” and the “level of ErbB2” value is “concomitantly decreased”. Besides, the “level of p62” value in series [1] is listed as “significant reduction”. Further, in series [2], the “embryo phenotype (trunk, tail, pigmentation; developmental defects)” value was “all but one CL-387,785-treated embryos exhibited wild-type trunks and tails with normal pigmentation”. In addition, the “probe test with invisible platform (cognitive function versus vehicle-treated AD mice)” value in series [3] (after 3 weeks of daily dosing (day 21)) was “dramatic cognitive improvement”. Besides, the “spatial learning (escape latency, Morris water maze)” value in series [3] (after 16 days of daily dosing) is listed as “significantly enhanced spatial learning”. Also, in series [4], the “brain level of APP-CTF” value was “significant reduction”, the “brain level of ErbB2” value is “significant reduction”, the “brain level of p62” value is “significant reduction” and the “brain level of total APP” value was “steady level”. In series [4], the “brain ratio of LC3-II to LC3-I” value was “increase”.
